Results taken from US9051310B2, “Nicotinamide derivative or salt thereof” (FUJIFILM Corporation, priority 2011, dated 2015).

Each molecule was assayed against T1, glutathione S-transferase (GST)-linked full-length human Syk protein (Homo sapiens, UniProt P43405) (assay: Syk enzyme assay). Conditions: 0.83 nM Syk, time-resolved fluorescence; read-out: IC50 of Syk-inhibitory activity.
T1 construct: glutathione S-transferase (GST)-linked full-length human Syk protein; purchased Carna Biosciences; host or cells: Baculovirus expression system
Type: biochemical
Summary of the method: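 Phosphotyrosine on a biotin-peptide substrate (0.5 μM) was read by time-resolved fluorescence at 615 and 665 nm with Eu-anti-pTyr antibody and APC-streptavidin after 1 h EDTA stop.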

How did the IC50 turn out when `Cc1ncc(Nc2nc(N[C@H](Cc3ccccc3)[C@H](C)N)c(F)cc2C(N)=O)cc1F` [Example 2-426, 6-(((2R,3S)-3-amino-1-phenylbutan-2-yl)amino)-5-fluoro-2-((5-fluoro-6-methylpyridin-3-yl)amino)nicotinamide] was run?
The IC50 was 0.01 to 0.05 µM.

Which IC50 does the source give for `CC[C@@H](Nc1nc(Nc2ccc3c(c2)c(N2CCCC2)nn3C)c(C(N)=O)cc1F)[C@H](C)N` [Example 2-429, 6-(((2S,3R)-2-aminopentan-3-yl)amino)-5-fluoro-2-((1-methyl-3-(pyrrolidin-1-yl)-1H-indazol-5-yl)amino)nicotinamide] here?
The IC50 was less than 0.01 µM.

For `C[C@H](N)[C@H](Nc1nc(Nc2ccc3c(c2)c(N2CCCC2)nn3C)c(C(N)=O)cc1F)C1CC1` [Example 2-430, 6-(((1R,2S)-2-amino-1-cyclopropylpropyl)amino)-5-fluoro-2-((1-methyl-3-(pyrrolidin-1-yl)-1H-indazol-5-yl)amino)nicotinamide], which IC50 is on record?
The IC50 was 0.01 to 0.05 µM.

Which IC50 does the source give for `Cn1nc(N2CCCC2=O)c2cc(Nc3nc(N[C@@H]4CCCC[C@@H]4N)c(F)cc3C(N)=O)ccc21` [Example 2-431, 6-(((1R,2S)-2-aminocyclohexyl)amino)-5-fluoro-2-((1-methyl-3-(2-oxopyrrolidin-1-yl)-1H-indazol-5-yl)amino)nicotinamide] here?
Its IC50 is 0.01 to 0.05 µM.

Which IC50 does the source give for `Cc1ccc(Nc2nc(N[C@@H]3CCCC[C@@H]3N)c(F)cc2C(N)=O)cc1` [Example 2-435, 6-(((1R,2S)-2-aminocyclohexyl)amino)-5-fluoro-2-(p-tolylamino)nicotinamide] here?
Its IC50 is less than 0.01 µM.

How did the IC50 turn out when `NC(=O)c1cc(F)c(N[C@@H]2CCCC[C@@H]2N)nc1Nc1cccc(OC(F)(F)F)c1` [Example 2-444, 6-(((1R,2S)-2-aminocyclohexyl)amino)-5-fluoro-2-((3-(trifluoromethoxy)phenyl)amino)nicotinamide] was run?
The IC50 was less than 0.01 µM.

How did the IC50 turn out when `Cc1ccc(Nc2nc(N[C@@H]3CCCC[C@@H]3N)c(F)cc2C(N)=O)cc1Cl` [Example 2-445, 6-(((1R,2S)-2-aminocyclohexyl)amino)-2-((3-chloro-4-methylphenyl)amino)-5-fluoronicotinamide] was run?
Its IC50 is less than 0.01 µM.

With `CC(C)Oc1cccc(Nc2nc(N[C@@H]3CCCC[C@@H]3N)c(F)cc2C(N)=O)c1` [Example 2-446, 6-(((1R,2S)-2-aminocyclohexyl)amino)-5-fluoro-2-((3-isopropoxyphenyl)amino) nicotinamide] as the molecule, how does the IC50 read?
The IC50 was less than 0.01 µM.

How did the IC50 turn out when `NC(=O)c1cc(F)c(N[C@@H]2CCCC[C@@H]2N)nc1Nc1ccc(F)c(F)c1` [Example 2-447, 6-(((1R,2S)-2-aminocyclohexyl)amino)-2-((3,4-difluorophenyl)amino)-5-fluoronicotinamide] was run?
The IC50 was less than 0.01 µM.

Which IC50 does the source give for `CC(C)c1ccc(Nc2nc(N[C@@H]3CCCC[C@@H]3N)c(F)cc2C(N)=O)cc1` [Example 2-448, 6-(((1R,2S)-2-aminocyclohexyl)amino)-5-fluoro-2-((4-isopropylphenyl)amino) nicotinamide] here?
The IC50 was 0.01 to 0.05 µM.

`CC(C)Oc1ccc(Nc2nc(N[C@@H]3CCCC[C@@H]3N)c(F)cc2C(N)=O)cc1` [Example 2-449, 6-(((1R,2S)-2-aminocyclohexyl)amino)-5-fluoro-2-((4-isopropoxyphenyl)amino) nicotinamide] was tested. Which IC50 did it give?
Its IC50 is less than 0.01 µM.

How did the IC50 turn out when `CCc1cccc(Nc2nc(N[C@@H]3CCCC[C@@H]3N)c(F)cc2C(N)=O)c1` [Example 2-450, 6-(((1R,2S)-2-aminocyclohexyl)amino)-2-((3-ethylphenyl)amino)-5-fluoronicotinamide] was run?
Its IC50 is less than 0.01 µM.

With `C[C@H](N)[C@H](Nc1nc(Nc2cnc(N3CCOCC3)c(F)c2)c(C(N)=O)cc1F)c1cccc(F)c1` [Example 2-451, 6-(((1R,2S)-2-amino-1-(3-fluorophenyl)propyl)amino)-5-fluoro-2-((5-fluoro-6-morpholinopyridin-3-yl)amino)nicotinamide] as the molecule, how does the IC50 read?
Its IC50 is less than 0.01 µM.

For `C[C@H](N)[C@H](Nc1nc(Nc2ccc3c(c2)c(N(C)C)nn3C)c(C(N)=O)cc1F)c1cccc(F)c1` [Example 2-452, 6-(((1R,2S)-2-amino-1-(3-fluorophenyl)propyl)amino)-2-((3-(dimethylamino)-1-methyl-1H-indazol-5-yl)amino)-5-fluoronicotinamide], which IC50 is on record?
The IC50 was less than 0.01 µM.

Which IC50 does the source give for `Cc1ncc(Nc2nc(N[C@H](c3cccc(F)c3)[C@H](C)N)c(F)cc2C(N)=O)cc1F` [Example 2-453, 6-(((1R,2S)-2-amino-1-(3-fluorophenyl)propyl)amino)-5-fluoro-2-((5-fluoro-6-methylpyridin-3-yl)amino)nicotinamide] here?
Its IC50 is less than 0.01 µM.

With `COCCn1ncc2cc(Nc3nc(N[C@H](c4ccc(OC)cc4)[C@H](C)N)c(F)cc3C(N)=O)ccc21` [Example 2-455, 6-(((1R,2S)-2-amino-1-(4-methoxyphenyl)propyl)amino)-5-fluoro-2-((1-(2-methoxyethyl)-1H-indazol-5-yl)amino)nicotinamide] as the molecule, how does the IC50 read?
Its IC50 is less than 0.01 µM.

With `COCCN(C)c1nn(C)c2ccc(Nc3nc(N[C@@H]4CCOC[C@@H]4N)c(F)cc3C(N)=O)cc12` [Example 2-457, 6-(((3R,4R)-3-aminotetrahydro-2H-pyran-4-yl)amino)-5-fluoro-2-((3-((2-methoxyethyl)(methyl)amino)-1-methyl-1H-indazol-5-yl)amino)nicotinamide] as the molecule, how does the IC50 read?
The IC50 was less than 0.01 µM.

With `CC[C@@H](Nc1nc(Nc2ccc3c(c2)c(N(C)CCOC)nn3C)c(C(N)=O)cc1F)[C@H](C)N` [Example 2-458, 6-(((2S,3R)-2-aminopentan-3-yl)amino)-5-fluoro-2-((3-((2-methoxyethyl)(methyl)amino)-1-methyl-1H-indazol-5-yl)amino)nicotinamide] as the molecule, how does the IC50 read?
Its IC50 is less than 0.01 µM.

For `CCC[C@@H](Nc1nc(Nc2ccc3c(c2)c(N(C)CCOC)nn3C)c(C(N)=O)cc1F)[C@H](C)N` [Example 2-459, 6-(((2S,3R)-2-aminohexan-3-yl)amino)-5-fluoro-2-((3-((2-methoxyethyl)(methyl)amino)-1-methyl-1H-indazol-5-yl)amino)nicotinamide], which IC50 is on record?
Its IC50 is 0.01 to 0.05 µM.

How did the IC50 turn out when `COCCN(C)c1nn(C)c2ccc(Nc3nc(N[C@H](C4CC4)[C@H](C)N)c(F)cc3C(N)=O)cc12` [Example 2-460, 6-(((1R,2S)-2-amino-1-cyclopropylpropyl)amino)-5-fluoro-2-((3-((2-methoxyethyl)(methyl)amino)-1-methyl-1H-indazol-5-yl)amino)nicotinamide] was run?
The IC50 was less than 0.01 µM.

`CC[C@H](N)[C@@H](C)Nc1nc(Nc2ccc3c(c2)c(N(C)CCOC)nn3C)c(C(N)=O)cc1F` [Example 2-461, 6-(((2R,3S)-3-aminopentan-2-yl)amino)-5-fluoro-2-((3-((2-methoxyethyl)(methyl)amino)-1-methyl-1H-indazol-5-yl)amino)nicotinamide] was tested. Which IC50 did it give?
The IC50 was 0.01 to 0.05 µM.

With `COCCNc1nn(C)c2ccc(Nc3nc(N[C@@H]4CCCC[C@@H]4N)c(F)cc3C(N)=O)cc12` [Example 2-462, 6-(((1R,2S)-2-aminocyclohexyl)amino)-5-fluoro-2-((3-((2-methoxyethyl)amino)-1-methyl-1H-indazol-5-yl)amino)nicotinamide] as the molecule, how does the IC50 read?
The IC50 was 0.01 to 0.05 µM.

How did the IC50 turn out when `CC[C@@H](Nc1nc(Nc2ccc3c(c2)c(NCCOC)nn3C)c(C(N)=O)cc1F)[C@H](C)N` [Example 2-463, 6-(((2S,3R)-2-aminopentan-3-yl)amino)-5-fluoro-2-((3-((2-methoxyethyl)amino)-1-methyl-1H-indazol-5-yl)amino)nicotinamide] was run?
The IC50 was 0.01 to 0.05 µM.

Which IC50 does the source give for `COCCNc1nn(C)c2ccc(Nc3nc(N[C@H](C4CC4)[C@H](C)N)c(F)cc3C(N)=O)cc12` [Example 2-464, 6-(((1R,2S)-2-amino-1-cyclopropylpropyl)amino)-5-fluoro-2-((3-((2-methoxyethyl)amino)-1-methyl-1H-indazol-5-yl)amino)nicotinamide] here?
The IC50 was 0.01 to 0.05 µM.

With `Cc1ncc(Nc2nc(N[C@@H](CN)Cn3cccn3)c(F)cc2C(N)=O)cc1F` [Example 2-469, (S)-6-((1-amino-3-(1H-pyrazol-1-yl)propan-2-yl)amino)-5-fluoro-2-((5-fluoro-6-methylpyridin-3-yl)amino)nicotinamide] as the molecule, how does the IC50 read?
Its IC50 is 0.01 to 0.05 µM.

Which IC50 does the source give for `CC[C@H](N)[C@H](Nc1nc(Nc2cccnc2)c(C(N)=O)cc1F)C1CC1` [Example 2-485, 6-(((1R,2S)-2-amino-1-cyclopropylbutyl)amino)-5-fluoro-2-(pyridin-3-ylamino)nicotinamide] here?
The IC50 was 0.01 to 0.05 µM.

For `CC[C@H](N)[C@H](Nc1nc(Nc2cncc(F)c2)c(C(N)=O)cc1F)C1CC1` [Example 2-486, 6-(((1R,2S)-2-amino-1-cyclopropylbutyl)amino)-5-fluoro-2-((5-fluoropyridin-3-yl)amino)nicotinamide], which IC50 is on record?
Its IC50 is 0.01 to 0.05 µM.

`CNc1n[nH]c2ccc(Nc3nc(N[C@@H]4CCCC[C@@H]4N)c(F)cc3C(N)=O)cc12` [Example 2-488, 6-(((1R,2S)-2-aminocyclohexyl)amino)-5-fluoro-2-((3-(methylamino)-1H-indazol-5-yl)amino)nicotinamide] was tested. Which IC50 did it give?
The IC50 was less than 0.01 µM.

How did the IC50 turn out when `CC[C@@H](Nc1nc(Nc2ccc3[nH]nc(NC)c3c2)c(C(N)=O)cc1F)[C@H](C)N` [Example 2-489, 6-(((2S,3R)-2-aminopentan-3-yl)amino)-5-fluoro-2-((3-(methylamino)-1H-indazol-5-yl)amino)nicotinamide] was run?
The IC50 was 0.01 to 0.05 µM.

With `CNc1n[nH]c2ccc(Nc3nc(N[C@H](C4CC4)[C@H](C)N)c(F)cc3C(N)=O)cc12` [Example 2-490, 6-(((1R,2S)-2-amino-1-cyclopropylpropyl)amino)-5-fluoro-2-((3-(methylamino)-1H-indazol-5-yl)amino)nicotinamide] as the molecule, how does the IC50 read?
The IC50 was 0.01 to 0.05 µM.

For `CC[C@H](N)[C@@H](C)Nc1nc(Nc2ccc3[nH]nc(NC)c3c2)c(C(N)=O)cc1F` [Example 2-491, 6-(((2R,3S)-3-aminopentan-2-yl)amino)-5-fluoro-2-((3-(methylamino)-1H-indazol-5-yl)amino)nicotinamide], which IC50 is on record?
Its IC50 is 0.01 to 0.05 µM.

How did the IC50 turn out when `CN(C)c1n[nH]c2ccc(Nc3nc(N[C@@H]4CCCC[C@@H]4N)c(F)cc3C(N)=O)cc12` [Example 2-492, 6-(((1R,2S)-2-aminocyclohexyl)amino)-2-((3-(dimethylamino)-1H-indazol-5-yl)amino)-5-fluoronicotinamide] was run?
The IC50 was less than 0.01 µM.
